The record followed here is ChEMBL document CHEMBL4321828, “Recent developments on (-)-colchicine derivatives: Synthesis and structure-activity relationship” (Eur J Med Chem, 2020).

As usually defined, the IC50 is the concentration at which inhibition is half-maximal.

One series concerns COLO 205. Description: Antiproliferative activity against human COLO205 cells assessed as reduction in cell viability incubated for 48 hrs by MTT assay. Format: functional, cell-based. The following applies: COLO 205, 48 h. In general terms: Tetrazolium assays rely on reduction of a dye to a coloured formazan, in cell work by metabolically active cells.
A further series has as its system HCT-116. Nature of the series: Antiproliferative activity against human HCT116 cells assessed as reduction in cell viability incubated for 48 hrs by MTT assay. Conditions: HCT-116, 48 h. The series is classed as functional, cell-based.
Series [1] addresses ATP-dependent translocase ABCB1 (Homo sapiens, UniProt P08183). Nature of the series: Induction of P-gp in human LS180 cells assessed as […] in intracellular accumulation of Rh123 at 100 nM using Rho123 as substrate preincubated for 48 hrs followed by addition of Rh123 and measured after 90 mins by fluorescence based assay relative to control. Format: cell-based. The following applies: ls180, 48 h preincubation, then 1.5 h with Rh123, 0.1 µM.

For another series, the system named is A549. Nature of the series: Antiproliferative activity against human A549 cells assessed as reduction in cell viability incubated for 24 hrs by SRB assay. The series is classed as functional, cell-based. The following applies: A549, 24 h.
In a further series the test system is HCT-15. Description: Antiproliferative activity against human HCT15 cells assessed as reduction in cell viability incubated for 24 hrs by SRB assay. The series is classed as functional, cell-based. Conditions: HCT-15, 24 h.
The test system of another series is MCF7. Description: Antiproliferative activity against human MCF7 cells assessed as reduction in cell viability incubated for 24 hrs by SRB assay. Conditions: MCF7, 24 h. Format: functional, cell-based. For orientation: Sulforhodamine B stains cellular protein and so reports cell mass.

Chain of ATP-dependent translocase ABCB1 (P08183 whole entry): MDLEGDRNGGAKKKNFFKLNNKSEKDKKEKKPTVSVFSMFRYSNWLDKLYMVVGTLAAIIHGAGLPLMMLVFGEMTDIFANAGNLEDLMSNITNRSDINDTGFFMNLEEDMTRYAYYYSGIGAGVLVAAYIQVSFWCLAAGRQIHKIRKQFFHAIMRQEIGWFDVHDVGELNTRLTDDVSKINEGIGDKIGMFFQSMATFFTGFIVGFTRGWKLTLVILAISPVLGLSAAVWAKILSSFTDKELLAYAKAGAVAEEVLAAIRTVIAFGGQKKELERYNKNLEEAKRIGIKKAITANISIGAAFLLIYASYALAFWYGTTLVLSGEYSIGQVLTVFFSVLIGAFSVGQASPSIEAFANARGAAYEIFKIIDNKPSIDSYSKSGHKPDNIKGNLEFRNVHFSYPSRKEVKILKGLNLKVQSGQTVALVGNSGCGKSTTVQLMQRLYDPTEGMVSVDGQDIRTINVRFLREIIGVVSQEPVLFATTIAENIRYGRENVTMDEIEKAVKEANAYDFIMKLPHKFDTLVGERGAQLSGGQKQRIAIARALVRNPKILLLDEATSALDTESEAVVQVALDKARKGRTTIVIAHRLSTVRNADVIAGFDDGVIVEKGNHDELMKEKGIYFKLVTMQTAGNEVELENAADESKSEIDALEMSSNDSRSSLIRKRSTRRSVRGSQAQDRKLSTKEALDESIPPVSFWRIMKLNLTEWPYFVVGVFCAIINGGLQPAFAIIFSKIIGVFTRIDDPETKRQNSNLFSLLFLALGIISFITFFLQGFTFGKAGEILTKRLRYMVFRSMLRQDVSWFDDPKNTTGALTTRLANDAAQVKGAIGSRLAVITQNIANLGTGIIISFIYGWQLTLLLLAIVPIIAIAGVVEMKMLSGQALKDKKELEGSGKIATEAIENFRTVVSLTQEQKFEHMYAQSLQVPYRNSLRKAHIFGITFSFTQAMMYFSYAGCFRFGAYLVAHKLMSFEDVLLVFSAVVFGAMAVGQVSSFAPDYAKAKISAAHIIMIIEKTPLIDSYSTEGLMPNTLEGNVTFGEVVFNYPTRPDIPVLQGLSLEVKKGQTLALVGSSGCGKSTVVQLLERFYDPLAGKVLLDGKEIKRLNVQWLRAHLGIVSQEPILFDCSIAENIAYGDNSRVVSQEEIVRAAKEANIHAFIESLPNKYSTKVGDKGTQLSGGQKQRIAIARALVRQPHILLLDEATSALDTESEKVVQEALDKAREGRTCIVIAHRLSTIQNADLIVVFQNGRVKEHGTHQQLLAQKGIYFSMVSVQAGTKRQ

As for `COc1cc2c(c(OC)c1OC)-c1ccc(N3CCOCC3)c(=O)cc1[C@@H](NC(C)=O)CC2`, the half-inhibitory concentration (IC50) in the series on COLO 205 was 1200 nM; in the series on HCT-116, 5000 nM. Further, the Activity in series [1] is 95.97%.

For the compound `COc1cc2c(c(OC)c1OC)-c1ccc(N3CCCCC3)c(=O)cc1[C@@H](NC(C)=O)CC2`, the half-maximal inhibitory concentration (IC50) was 1800 nM in the series with COLO 205 and 3000 nM with HCT-116. Moreover, the Activity in series [1] is 119.01%.

With `CCOC(=O)C1CCN(c2ccc3c(cc2=O)[C@@H](NC(C)=O)CCc2cc(OC)c(OC)c(OC)c2-3)CC1`, the half-maximal inhibitory concentration (IC50) was 8000 nM with COLO 205 and over 10000 nM in the series with HCT-116. In addition, in series [1], the Activity is recorded as 95.49%.

With `COc1cc2c(c(OC)c1OC)-c1ccc(Nc3ccc(F)c(Cl)c3)c(=O)cc1[C@@H](NC(C)=O)CC2`, the IC50 in the series with COLO 205 amounted to 500 nM; in the series on HCT-116, 700 nM. Further, in series [1], the Activity was determined as 90.05%.

With `COc1cc2c(c(OC)c1OC)-c1ccc(Nc3ccc4c(c3)OCO4)c(=O)cc1[C@@H](NC(C)=O)CC2`, the half-maximal inhibitory concentration (IC50) in the series on COLO 205 came out at 3000 nM; with HCT-116 it was 4000 nM. In addition, in series [1], the Activity was 102.66%.

On to `COc1cc2c(c(OC)c1OC)-c1ccc(N3CCN(C)CC3)c(=O)cc1[C@@H](NC(C)=O)CC2`, for which the IC50 in the series on COLO 205 came out at 1000 nM; in the series on HCT-116, 3000 nM. In addition, the Activity in series [1] was 102.82%.

Turning to `COc1cc2c(c(OC)c1OC)-c1ccc(N3CCC(c4ccccc4)CC3)c(=O)cc1[C@@H](NC(C)=O)CC2`, the figures for the half-inhibitory concentration (IC50) in the series with COLO 205 and in the series with HCT-116 were 800 nM and 1000 nM, respectively. Further, in series [1], the Activity came out at 101.03%.

Consider `COc1cc2c(c(OC)c1OC)-c1ccc(N3CCC4c5ccccc5NC4C3)c(=O)cc1[C@@H](NC(C)=O)CC2` (stereo partly specified), for which the results for the concentration for half-maximal inhibition (IC50) in the series on COLO 205 and in the series with HCT-116 were 800 nM and 3000 nM, respectively. Also, the Activity in series [1] was determined as 119.7%.

Turning to `COc1cc2c(c(OC)c1OC)-c1ccc(N3CCN(C(=O)OC(C)(C)C)CC3)c(=O)cc1[C@@H](NC(C)=O)CC2`, the IC50 in the series with COLO 205 turned out to be 3000 nM; with HCT-116, 4000 nM. For the same compound, in series [1], the Activity was found to be 90.94%.

For the compound `COc1cc2c(c(OC)c1OC)-c1ccc(=N)c(O)cc1[C@@H](NC(C)=O)CC2`, the results for the IC50 in the series on COLO 205 and in the series on HCT-116 were 120 nM and 150 nM, respectively. For the same compound, the Activity in series [1] is listed as 107.41%.

On to `COc1cc2c(c(OC)c1OC)-c1ccc(N3CCC(N)CC3)c(=O)cc1[C@@H](NC(C)=O)CC2`, for which the values for the IC50 in the series with COLO 205 and in the series on HCT-116 were 5000 nM and 10000 nM, respectively. Further, the Activity in series [1] is on record as 102.04%.

`CCN(CC)c1ccc2c(cc1=O)[C@@H](NC(C)=O)CCc1cc(OC)c(OC)c(OC)c1-2`: the 50% inhibitory concentration (IC50) in the series on COLO 205 is 430 nM; in the series on HCT-116, 800 nM. Further, in series [1], the Activity was 95.38%.

Turning to `COc1cc2c(c(OC)c1OC)-c1ccc(N3CCC[C@@H]3CO)c(=O)cc1[C@@H](NC(C)=O)CC2`, the concentration for half-maximal inhibition (IC50) is 8000 nM with COLO 205 and 10000 nM in the series on HCT-116. Also, the Activity in series [1] was found to be 86.53%.

Consider `COc1cc2c(c(OC)c1OC)-c1ccc(SC)c(=O)cc1[C@@H](NC(=O)CC[C@H](NC(=O)c1ccc(NCc3cnc4nc(N)nc(O)c4n3)cc1)C(=O)O)CC2`, for which the IC50 amounted to 4.96 µM in the series on A549, 1160 nM in the series on HCT-15 and 697 nM with MCF7.

Consider `COc1cc2c(c(OC)c1OC)-c1ccc(N3CCCC3)c(=O)cc1[C@@H](NC(C)=O)CC2`, for which the concentration for half-maximal inhibition (IC50) was found to be 240 nM in the series on COLO 205 and 300 nM in the series with HCT-116. Also, the Activity in series [1] is given as 107.12%.

For the compound `COc1cc2c(c(OC)c1OC)-c1ccc(Nc3ccc(Cl)c(C(F)(F)F)c3)c(=O)cc1[C@@H](NC(C)=O)CC2`, the figures for the IC50 in the series with COLO 205 and in the series with HCT-116 were 30 nM and 40 nM, respectively. For the same compound, in series [1], the Activity is recorded as 90.29%.

As for `COc1cc2c(c(OC)c1OC)-c1ccc(N3CCNCC3)c(=O)cc1[C@@H](NC(C)=O)CC2`, the IC50 with COLO 205 is 8000 nM; in the series with HCT-116, over 10000 nM. Besides, in series [1], the Activity worked out at 95.52%.
